Patent US20090298820A1, “3-SUBSTITUTED-1H-PYRROLO[2,3-B]PYRIDINE AND 3-SUBSTITUTED-1H-PYRROLO[3,2-B]PYRIDINE COMPOUNDS, THEIR USE AS MTOR KINASE AND PI3 KINASE INHIBITORS, AND THEIR SYNTHESES” (Wyeth, priority 2008, published 2009)

How the values were obtained:
Type in all cases: biochemical
PI3Kα = PI3Kα (Homo sapiens, UniProt P42336); experiment: PI3K-alpha fluorescence polarization assay; conditions: read-out: PI3Kα Median IC50
mTOR = mTOR (Homo sapiens, UniProt P42345); experiment: mTOR enzyme assay (DELFIA format, His6-S6K substrate); conditions: read-out: mTOR Kinase Median IC50
PI3Kγ = PI3Kγ (Homo sapiens, UniProt P48736); experiment: PI3K-gamma fluorescence polarization assay; conditions: read-out: PI3Kγ Median IC50
Sequence of PI3Kγ (P48736 whole entry, species assumed): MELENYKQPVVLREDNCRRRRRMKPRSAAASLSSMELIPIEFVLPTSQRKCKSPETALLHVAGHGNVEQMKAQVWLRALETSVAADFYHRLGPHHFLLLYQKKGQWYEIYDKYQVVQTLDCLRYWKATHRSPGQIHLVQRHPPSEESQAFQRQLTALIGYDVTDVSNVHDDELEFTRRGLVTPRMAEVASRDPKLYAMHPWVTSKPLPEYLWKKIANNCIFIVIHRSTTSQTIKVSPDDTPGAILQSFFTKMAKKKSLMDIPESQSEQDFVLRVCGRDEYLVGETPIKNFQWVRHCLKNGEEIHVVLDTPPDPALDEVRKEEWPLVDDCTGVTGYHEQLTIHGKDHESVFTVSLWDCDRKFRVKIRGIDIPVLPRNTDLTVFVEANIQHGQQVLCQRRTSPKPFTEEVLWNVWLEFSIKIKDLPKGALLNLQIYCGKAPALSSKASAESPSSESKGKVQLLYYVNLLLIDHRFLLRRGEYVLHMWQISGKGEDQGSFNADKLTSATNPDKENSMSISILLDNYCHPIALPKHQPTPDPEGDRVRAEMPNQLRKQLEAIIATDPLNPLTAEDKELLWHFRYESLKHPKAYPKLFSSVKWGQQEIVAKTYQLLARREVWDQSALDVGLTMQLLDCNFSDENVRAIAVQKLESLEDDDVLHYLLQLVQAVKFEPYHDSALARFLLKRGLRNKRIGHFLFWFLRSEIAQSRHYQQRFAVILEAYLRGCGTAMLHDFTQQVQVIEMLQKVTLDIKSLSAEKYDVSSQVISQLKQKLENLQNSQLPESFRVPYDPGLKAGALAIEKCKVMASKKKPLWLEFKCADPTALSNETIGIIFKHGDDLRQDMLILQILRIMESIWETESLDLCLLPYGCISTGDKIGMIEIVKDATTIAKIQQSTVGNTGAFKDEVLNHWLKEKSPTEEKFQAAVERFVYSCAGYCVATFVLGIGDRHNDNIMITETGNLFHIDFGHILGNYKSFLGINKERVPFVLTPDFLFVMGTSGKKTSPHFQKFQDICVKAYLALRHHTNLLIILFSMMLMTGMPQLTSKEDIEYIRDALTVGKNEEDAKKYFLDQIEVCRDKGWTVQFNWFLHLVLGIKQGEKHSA

Sequence of PI3Kα (P42336 whole entry, species assumed): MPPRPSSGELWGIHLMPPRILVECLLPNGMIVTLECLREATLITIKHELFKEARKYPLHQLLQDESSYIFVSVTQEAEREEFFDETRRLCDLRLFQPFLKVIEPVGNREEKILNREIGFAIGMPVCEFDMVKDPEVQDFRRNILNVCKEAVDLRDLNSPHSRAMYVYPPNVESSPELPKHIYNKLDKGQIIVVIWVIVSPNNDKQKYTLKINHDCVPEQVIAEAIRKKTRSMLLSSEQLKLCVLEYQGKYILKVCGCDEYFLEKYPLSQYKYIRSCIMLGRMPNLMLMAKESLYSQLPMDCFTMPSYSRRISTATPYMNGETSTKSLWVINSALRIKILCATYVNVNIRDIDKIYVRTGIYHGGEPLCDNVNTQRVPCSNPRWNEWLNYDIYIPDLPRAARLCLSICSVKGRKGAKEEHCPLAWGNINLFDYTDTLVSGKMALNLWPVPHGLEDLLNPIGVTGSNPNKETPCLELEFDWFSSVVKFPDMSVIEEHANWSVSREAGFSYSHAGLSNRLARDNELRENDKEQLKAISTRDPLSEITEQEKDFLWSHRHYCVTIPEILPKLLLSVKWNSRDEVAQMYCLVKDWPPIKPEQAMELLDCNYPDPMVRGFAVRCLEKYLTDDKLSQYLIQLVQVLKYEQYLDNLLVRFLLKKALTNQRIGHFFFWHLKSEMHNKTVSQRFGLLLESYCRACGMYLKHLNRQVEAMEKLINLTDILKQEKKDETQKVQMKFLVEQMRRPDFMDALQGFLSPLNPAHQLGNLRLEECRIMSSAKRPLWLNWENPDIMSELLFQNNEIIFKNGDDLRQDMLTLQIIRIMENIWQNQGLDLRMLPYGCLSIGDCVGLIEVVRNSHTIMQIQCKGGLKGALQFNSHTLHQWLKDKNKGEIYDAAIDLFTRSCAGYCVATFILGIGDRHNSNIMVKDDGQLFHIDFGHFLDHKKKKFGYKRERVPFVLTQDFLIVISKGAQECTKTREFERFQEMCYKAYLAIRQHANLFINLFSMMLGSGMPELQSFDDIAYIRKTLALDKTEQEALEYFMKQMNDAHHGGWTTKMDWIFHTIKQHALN
Sequence of PI3Kα (P27986 whole entry partner, species assumed): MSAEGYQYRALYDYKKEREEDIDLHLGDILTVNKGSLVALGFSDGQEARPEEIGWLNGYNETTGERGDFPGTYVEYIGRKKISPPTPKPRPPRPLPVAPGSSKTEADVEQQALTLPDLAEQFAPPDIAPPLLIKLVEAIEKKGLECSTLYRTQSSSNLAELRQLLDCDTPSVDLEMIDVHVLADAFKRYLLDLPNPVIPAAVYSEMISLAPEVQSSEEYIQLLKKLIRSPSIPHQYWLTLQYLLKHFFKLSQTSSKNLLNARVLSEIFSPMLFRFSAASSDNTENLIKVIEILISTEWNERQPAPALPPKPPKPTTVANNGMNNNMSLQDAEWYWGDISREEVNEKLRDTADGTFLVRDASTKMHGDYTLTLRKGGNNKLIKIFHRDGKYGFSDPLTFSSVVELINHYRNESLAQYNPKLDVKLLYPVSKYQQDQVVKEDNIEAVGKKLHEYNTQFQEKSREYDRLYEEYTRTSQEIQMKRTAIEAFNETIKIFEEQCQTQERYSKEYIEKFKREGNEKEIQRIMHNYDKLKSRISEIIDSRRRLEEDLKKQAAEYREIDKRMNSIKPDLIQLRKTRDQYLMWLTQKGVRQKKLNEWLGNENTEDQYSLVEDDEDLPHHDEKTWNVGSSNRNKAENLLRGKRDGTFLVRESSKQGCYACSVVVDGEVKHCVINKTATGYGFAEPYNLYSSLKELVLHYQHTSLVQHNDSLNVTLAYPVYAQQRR

IC50 (PI3Kα) [µM] | IC50 (mTOR) [µM] | IC50 (PI3Kγ) [µM] | SMILES
0.649 | 0.13 | 3.64 | C[C@H]1COCCN1c1ccnc2c1c(/C=C1\Oc3ccc(NC(=O)Nc4cccnc4)cc3C1=O)cn2C [Compound 238, 1-[(2Z)-2-({1-methyl-4-[(3S)-3-methylmorpholin-4-yl]-1H-pyrrolo[2,3-b]pyridin-3-yl}methylidene)-3-oxo-2,3-dihydro-1-benzofuran-5-yl]-3-pyridin-3-ylurea]
0.049 | 0.0114 | 0.532 | Cn1cc(/C=C2\Oc3ccc(NC(=O)NC4CNC4)cc3C2=O)c2c(N3CC4CCC(C3)O4)ccnc21 [Compound 285, 1-azetidin-3-yl-3-[(2Z)-2-{[1-methyl-4-(8-oxa-3-azabicyclo[3.2.1]oct-3-yl)-1H-pyrrolo[2,3-b]pyridin-3-yl]methylidene}-3-oxo-2,3-dihydro-1-benzofuran-5-yl]urea]
0.154 | 0.0032 | 0.263 | Cn1cc(/C=C2\Oc3cccc(O)c3C2=O)c2c(-c3ccc(CN4CCOCC4)cc3)ccnc21 [Compound 130, (2Z)-4-hydroxy-2-({1-methyl-4-[4-(morpholin-4-ylmethyl)phenyl]-1H-pyrrolo[2,3-b]pyridin-3-yl}methylene)-1-benzofuran-3(2H)-one]
0.034 | 0.003 | 0.101 | Cn1cc(/C=C2\Oc3cccc(O)c3C2=O)c2c(-c3ccc(S(=O)(=O)N4CCOCC4)cc3)ccnc21 [Compound 191, (2Z)-4-hydroxy-2-({1-methyl-4-[4-(morpholin-4-ylsulfonyl)phenyl]-1H-pyrrolo[2,3-b]pyridin-3-yl}methylidene)-1-benzofuran-3(2H)-one]
8.36 | 0.0189 | 7.22 | CN(C(=O)C1CCN(c2ccnc3c2c(C=C2Oc4ccc(NC(=O)Nc5cccnc5)cc4C2=O)cn3C)CC1)C1CCOCC1 [Compound 213, N-methyl-1-[1-methyl-3-({3-oxo-5-[(pyridin-3-ylcarbamoyl)amino]-1-benzofuran-2(3H)-ylidene}methyl)-1H-pyrrolo[2,3-b]pyridin-4-yl]-N-(tetrahydro-2H-pyran-4-yl)piperidine-4-carboxamide]
5.7 | 3.35 | > 10 | Cn1cc(/C=C2\Oc3ccc(NC(=O)Nc4ccc(N5CCOCC5)cc4)cc3C2=O)c2c(N3CC4CCC(C3)O4)ccnc21 [Compound 273, 1-[(2Z)-2-{[1-methyl-4-(8-oxa-3-azabicyclo[3.2.1]oct-3-yl)-1H-pyrrolo[2,3-b]pyridin-3-yl]methylidene}-3-oxo-2,3-dihydro-1-benzofuran-5-yl]-3-(4-morpholin-4-ylphenyl)urea]
0.085 | 0.0005 | 0.084 | CN(C)c1ccc(-c2ccnc3c2c(/C=C2\Oc4cc(O)cc(O)c4C2=O)cn3C)cc1 [Compound 25, (2Z)-2-({4-[4-(dimethylamino)phenyl]-1-methyl-1H-pyrrolo[2,3-b]pyridin-3-yl}methylene)-4,6-dihydroxy-1-benzofuran-3(2H)-one]
0.156 | 0.01 | 1.42 | Cn1cc(/C=C2\Oc3cccc(O)c3C2=O)c2c(-c3ccc(N4CCNCC4)cc3)ccnc21 [Compound 135, (2Z)-4-hydroxy-2-{[1-methyl-4-(4-piperazin-1-ylphenyl)-1H-pyrrolo[2,3-b]pyridin-3-yl]methylene}-1-benzofuran-3(2H)-one]
> 10 | 0.0265 | 4.17 | Cn1cc(C=C2Oc3ccc(NC(=O)Nc4cccnc4)cc3C2=O)c2c(N3CCC(C(=O)N[C@H]4CCNC4)CC3)ccnc21 [Compound 209, 1-[1-methyl-3-({3-oxo-5-[(pyridin-3-ylcarbamoyl)amino]-1-benzofuran-2(3H)-ylidene}methyl)-1H-pyrrolo[2,3-b]pyridin-4-yl]-N-[(3S)-pyrrolidin-3-yl]piperidine-4-carboxamide]
0.079 | 0.0019 | 0.581 | CN1CCN(c2ccc(-c3ccnc4c3c(/C=C3\Oc5cc(O)cc(O)c5C3=O)cn4C)cc2)CC1 [Compound 56, (2Z)-4,6-dihydroxy-2-({1-methyl-4-[4-(4-methylpiperazin-1-yl)phenyl]-1H-pyrrolo[2,3-b]pyridin-3-yl}methylene)-1-benzofuran-3(2H)-one]
0.064 | 0.0415 | 0.168 | Cn1cc(C=C2Oc3cc(O)cc(O)c3C2=O)c2cccnc21 [Compound 1, 4,6-dihydroxy-2-[(1-methyl-1H-pyrrolo[2,3-b]pyridin-3-yl)methylene]-1-benzofuran-3(2H)-one]
0.141 | 0.0078 | 1.23 | Cn1cc(/C=C2\Oc3cccc(O)c3C2=O)c2c(-c3cccc(C(=O)Nc4ccccc4)c3)ccnc21 [Compound 138, 3-{3-[(Z)-(4-hydroxy-3-oxo-1-benzofuran-2(3H)-ylidene)methyl]-1-methyl-1H-pyrrolo[2,3-b]pyridin-4-yl}-N-phenylbenzamide]
1.85 | 0.023 | 1.27 | Cc1cc(CN(C)C(=O)C2CCN(c3ccnc4c3c(/C=C3\Oc5ccc(NC(=O)Nc6cccnc6)cc5C3=O)cn4C)CC2)ccn1 [Compound 223, N-methyl-1-{1-methyl-3-[(Z)-{3-oxo-5-[(pyridin-3-ylcarbamoyl)amino]-1-benzofuran-2(3H)-ylidene}methyl]-1H-pyrrolo[2,3-b]pyridin-4-yl}-N-[(2-methylpyridin-4-yl)methyl]piperidine-4-carboxamide]
2.08 | 0.0275 | > 10 | Cn1cc(/C=C2\Oc3ccc(NC(=O)Nc4cccnc4)cc3C2=O)c2c(C3=CCOCC3)ccnc21 [Compound 294, 1-[(2Z)-2-{[4-(3,6-dihydro-2H-pyran-4-yl)-1-methyl-1H-pyrrolo[2,3-b]pyridin-3-yl]methylidene}-3-oxo-2,3-dihydro-1-benzofuran-5-yl]-3-pyridin-3-ylurea]
2.06 | 0.0175 | 0.529 | COC1CCN(C(=O)c2ccc(-c3ccnc4c3c(/C=C3\Oc5ccc(NC(=O)Nc6cccnc6)cc5C3=O)cn4C)cc2)C1 (stereo not drawn) [Compound 259, 1-{(2Z)-2-[(4-{4-[(3-methoxypyrrolidin-1-yl)carbonyl]phenyl}-1-methyl-1H-pyrrolo[2,3-b]pyridin-3-yl)methylene]-3-oxo-2,3-dihydro-1-benzofuran-5-yl}-3-pyridin-3-ylurea]
1.32 | 0.0805 | > 10 | Cn1cc(/C=C2\Oc3cccc(O)c3C2=O)c2c(-c3ccc(N4CCCC4)cc3)ccnc21 [Compound 143, (2Z)-4-hydroxy-2-{[1-methyl-4-(4-pyrrolidin-1-ylphenyl)-1H-pyrrolo[2,3-b]pyridin-3-yl]methylidene}-1-benzofuran-3(2H)-one]
0.503 | 0.039 | 0.638 | CN(C)C(=O)C1CCN(c2ccnc3c2c(/C=C2\Oc4ccc(NC(=O)Nc5ccc(OC6CCOCC6)nc5)cc4C2=O)cn3C)CC1 [Compound 267, N,N-dimethyl-1-(1-methyl-3-{(Z)-[3-oxo-5-({[6-(tetrahydro-2H-pyran-4-yloxy)pyridin-3-yl]carbamoyl}amino)-1-benzofuran-2(3H)-ylidene]methyl}-1H-pyrrolo[2,3-b]pyridin-4-yl)piperidine-4-carboxamide]
0.82 | 0.05 | 4 | Cn1c(-c2ccccc2)c(/C=C2\Oc3cc(O)cc(O)c3C2=O)c2cccnc21 [Compound 27, (2Z)-4,6-dihydroxy-2-[(1-methyl-2-phenyl-1H-pyrrolo[2,3-b]pyridin-3-yl)methylene]-1-benzofuran-3(2H)-one]
3.33 | 0.0042 | 1.14 | Cn1cc(/C=C2\Oc3ccc(NC(=O)Nc4cccnc4)cc3C2=O)c2c(N3CCC(C(=O)NCCO)CC3)ccnc21 [Compound 254, N-(2-hydroxyethyl)-1-{1-methyl-3-[(Z)-{3-oxo-5-[(pyridin-3-ylcarbamoyl)amino]-1-benzofuran-2(3H)-ylidene}methyl]-1H-pyrrolo[2,3-b]pyridin-4-yl}piperidine-4-carboxamide]
0.275 | 0.071 | 0.348 | Cn1cc(/C=C2\Oc3ccc(NC(=O)Nc4cccnc4)cc3C2=O)c2c(N3CCOCC3)ccnc21 [Compound 185, 1-{(2Z)-2-[(1-methyl-4-morpholin-4-yl-1H-pyrrolo[2,3-b]pyridin-3-yl)methylidene]-3-oxo-2,3-dihydro-1-benzofuran-5-yl}-3-pyridin-3-ylurea]
3.75 | 0.0405 | 1.19 | CC1CN(C(=O)C2CCN(c3ccnc4c3c(/C=C3\Oc5ccc(NC(=O)Nc6cccnc6)cc5C3=O)cn4C)CC2)CC(C)O1 (stereo not drawn) [Compound 265, 1-{(2Z)-2-[(4-{4-[(2,6-dimethylmorpholin-4-yl)carbonyl]piperidin-1-yl}-1-methyl-1H-pyrrolo[2,3-b]pyridin-3-yl)methylene]-3-oxo-2,3-dihydro-1-benzofuran-5-yl}-3-pyridin-3-ylurea]
0.023 | 0.0018 | 0.069 | Cn1cc(/C=C2\Oc3cc(O)cc(O)c3C2=O)c2c(-c3cccc(S(=O)(=O)N4CCCCC4)c3)ccnc21 [Compound 80, (2Z)-4,6-dihydroxy-2-({1-methyl-4-[3-(piperidin-1-ylsulfonyl)phenyl]-1H-pyrrolo[2,3-b]pyridin-3-yl}methylene)-1-benzofuran-3(2H)-one]

SMILES | IC50 (PI3Kα) [µM] | IC50 (mTOR) [µM] | IC50 (PI3Kγ) [µM]
Cn1cc(/C=C2\Oc3cccc(O)c3C2=O)c2c(-c3ccc(C(=O)N4CCN(CCO)CC4)cc3)ccnc21 [Compound 146, (2Z)-4-hydroxy-2-{[4-(4-{[4-(2-hydroxyethyl)piperazin-1-yl]carbonyl}phenyl)-1-methyl-1H-pyrrolo[2,3-b]pyridin-3-yl]methylidene}-1-benzofuran-3(2H)-one] | 0.1 | 0.0004 | 0.101
